# Results from patent publication US11952346B2, “Modulators of mas-related G-protein receptor X2 and related products and methods” (Escient Pharmaceuticals, Inc., priority 2020, dated 2024).
# Molecular target: T1, human MRGPRX2 (Homo sapiens, UniProt Q96LB1)
# T1 construct: expressed in transfected cells
# T1 sequence (Q96LB1 1-330): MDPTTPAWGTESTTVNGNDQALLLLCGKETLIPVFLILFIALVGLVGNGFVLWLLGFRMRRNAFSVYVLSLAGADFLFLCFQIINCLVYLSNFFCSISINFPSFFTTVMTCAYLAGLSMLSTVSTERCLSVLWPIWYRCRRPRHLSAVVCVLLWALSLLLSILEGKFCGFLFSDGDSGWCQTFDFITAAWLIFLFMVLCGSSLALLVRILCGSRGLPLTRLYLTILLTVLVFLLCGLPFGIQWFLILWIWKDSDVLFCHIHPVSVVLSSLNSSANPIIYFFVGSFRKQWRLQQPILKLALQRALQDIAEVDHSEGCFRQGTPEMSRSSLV
# Assay: MRGPRX2 antagonist activity, IP-One HTRF assay in CHO cells expressing human MRGPRX2 versus Cortistatin-14
# Format: cell-based
# Details: not given
row,Structure (SMILES),IC50 [nM]
1,Cn1nccc1C(=O)N[C@H]1CC[C@@H](Nc2ccc(C#N)c(C(F)(F)F)c2)CC1 [1-17],100 to 500

# Same assay, conditions: CHO cells stably expressing human MRGPRX2; versus 0.3 uM Cortistatin-14 agonist; IP-1 HTRF readout; read-out: MRGPR2 Antagonist Activity
row,Structure (SMILES),IC50 [nM]
1,"O=C(N[C@@H]1CCC[C@H](Nc2cc(C(F)(F)F)nc(C(F)(F)F)c2)C1)c1ccccc1 [Example 2, N-((1R,3S)-3-((2,6-bis(trifluoromethyl)pyridin-4-yl)amino)cyclohexyl)benzamide]",> 2500
2,COc1cc(N[C@H]2CC[C@@H](NC(=O)c3ccc(F)cc3)CC2)nc(C(F)(F)F)n1 [1-7],1000 to 2500
3,N#Cc1ccc(N[C@H]2CC[C@@H](NC(=O)c3cn[nH]c3C(F)(F)F)CC2)cc1C(F)(F)F [4-44],< 100
4,"COc1ccc(C(=O)N[C@H]2CC[C@@H](Nc3cc(C(F)(F)F)cc(C(F)(F)F)c3)CC2)cc1 [Example 14, N-((1S,4S)-4-((3,5-bis(trifluoromethyl)phenyl)amino)cyclohexyl)-4-methoxybenzamide]",> 2500
5,N#Cc1ccc(N[C@H]2CC[C@@H](NC(=O)c3ccc(F)cc3)CC2)cc1C(F)(F)F [1-22],100 to 500
6,CCn1nccc1C(=O)N[C@H]1CC[C@@H](Nc2cc(C)c(C#N)c(C(F)(F)F)c2)CC1 [5-6],< 100
7,Cc1cccc2[nH]cc(C(=O)N[C@H]3CC[C@@H](Nc4ccc(C#N)c(C(F)(F)F)c4)CC3)c12 [4-62],< 100
8,O=C(N[C@H]1CC[C@@H](Nc2nc(C(F)(F)F)nc3c2CCCC3)CC1)c1ccc(F)cc1 [1-11],1000 to 2500
9,N#Cc1ccc(N[C@H]2CC[C@@H](NC(=O)c3cccc4[nH]ccc34)CC2)cc1C(F)(F)F [1-12],< 100
10,N#Cc1ccc(N[C@H]2CC[C@@H](NC(=O)c3c[nH]c4ccncc34)CC2)cc1C(F)(F)F [4-63],< 100
11,CN(C)c1ccc(C(=O)N[C@H]2CC[C@@H](Nc3ccc(C#N)c(C(F)(F)F)c3)CC2)c(F)c1 [1-13],100 to 500
12,Cc1cc(N[C@H]2CC[C@@H](NC(=O)c3cn(CC(F)F)nc3C)CC2)cc(C(F)(F)F)c1C#N [5-10],< 100
13,COc1ccc(C(=O)N[C@@H]2CCC[C@H](Nc3nc(C(F)(F)F)nc4c3CCC4)C2)cc1 [1-6],1000 to 2500

# More lines, now with the values ahead:
row,IC50 [nM],Structure (SMILES)
1,1000 to 2500,O=C1Nc2c(C(=O)N[C@H]3CC[C@@H](Nc4cc(C(F)(F)F)nc(C(F)(F)F)c4)CC3)cccc2C1=O [4-7]
2,1000 to 2500,CN1CCCc2c(C(=O)N[C@H]3CC[C@@H](Nc4cc(C(F)(F)F)nc(C(F)(F)F)c4)CC3)cccc21 [4-19]
3,1000 to 2500,CN(C)c1ccc(C(=O)N[C@H]2CC[C@@H](Nc3cc(N(C)C)nc(C(F)(F)F)c3)CC2)cc1 [2-1]
4,501 to 1000,CN1CCCc2cc(C(=O)N[C@H]3CC[C@@H](Nc4cc(C(F)(F)F)nc(C(F)(F)F)c4)CC3)ccc21 [4-21]
5,100 to 500,O=C(N[C@H]1CC[C@@H](Nc2cc(C(F)(F)F)nc(C(F)(F)F)c2)CC1)c1cccc2ncsc12 [4-9]
6,501 to 1000,O=C(N[C@H]1CC[C@@H](Nc2cc(C(F)(F)F)nc(C(F)(F)F)c2)CC1)c1ccc(Cl)cc1Cl [4-32]
7,501 to 1000,CCn1nccc1C(=O)N[C@H]1CC[C@@H](Nc2cc(C(F)(F)F)nc(C(F)(F)F)c2)CC1 [4-12]
8,100 to 500,CN(c1ccc(C(=O)N[C@H]2CC[C@@H](Nc3cc(C(F)(F)F)nc(C(F)(F)F)c3)CC2)cc1)S(C)(=O)=O [4-23]
9,100 to 500,CC(=O)Nc1cccc(C(=O)N[C@H]2CC[C@@H](Nc3cc(C(F)(F)F)nc(C(F)(F)F)c3)CC2)c1 [4-5]
